Test results from US5468756A, “Imidazonaphthyridine derivatives” (Kyowa Hakko Kogyo Co., Ltd., priority 1990, dated 1995).

Legend:
ddY strain male mice = assay: Acute toxicity (Minimum Lethal Dose); type: in vivo
Experimental: The test compound was orally and intraperitoneally administered to ddY strain male mice weighing 20 to 25 g. MLD (Minimum Lethal Dose) was determined by observing the mortality for […] after the administration.

[1] = test system: carrageenin-induced paw edema; assay: Effect on carrageenin-induced paw edema; type: in vivo, male Wistar rats; details: Rattus norvegicus, 3 hours after carrageenin, read-out: Suppression rate for paw swelling, carrageenin-induced edema; for inhibition in vivo at 100 mg/kg: p.o.
Experimental: a) Effect on carrageenin-induced paw edema
(§1) Male Wistar rats weighing 150 to 160 g (n=3-5) were used in the experiment. After the right hind paw volume was measured with the plethysmograph (TK-101; Unicom Co., Ltd.), the test compound (25, 50 or 100 mg/kg) was orally administered. After one hour, 0.1 ml of 1% carrageenin (λ-carrageenin; PICNIN-A®, Zushi Kagaku Co., Ltd.) was subcutaneously injected into the right hind paw footpad. Three hours after the injection of carrageenin, the right hind paw volume was measured and the swelling rate was determined by the following equation 1. [formula] Vt: the right hind paw volume measured 3 hours after the injection of carrageenin
(§2) Vo: the right hind paw volume measured prior to the injection of carrageenin
(§3) The suppression rate was calculated by the following equation 2. [formula] Swt: the swelling rate of the group administered with the test compound Swc: the swelling rate of the control group administered with physiological saline solution

[2] = test system: passive Schultz-Dale reaction; assay: Effect on passive Schultz-Dale reaction (broncho-dilative activity), sensitized tracheal strips contracted by antigen; design: species or system male Hartley guinea pigs; details: guinea pig tracheal zig-zag strips, 37° C., antigen egg white albumin 1 μg/ml; read-out: Passive Schultz-Dale reaction IC50 (concentration of 50% relaxation rate)
Experimental: d) Effect on passive Schultz-Dale reaction (broncho-dilative activity)
Male Hartley guinea pigs weighing 350 to 500 g were passively sensitized by intraperitoneal injection of rabbit anti-OA serum prepared in advance by the method of Koda et al. [Folia Pharmacol., Japon 66, 237, (1970)]. After 24 hours, the guinea pigs were stunned and exsanguinated, and then tracheae were removed. The zig-zag strips of the tracheae were prepared by the method of Emmerson and Mackay [J. Pharm. Pharmacol., 31, 798, (1979)]. The strips were suspended in Krebs-Henseleit solution at 37° C. under aeration of a mixed gas of 95% oxygen and 5% carbon dioxide, and equilibrated for one hour. Then, antigen (egg white albumin) was introduced in the solution (final concentration; 1 μg/ml), and the contraction was measured by isotonictransducer (TD-112s, made by Nihon Kohden K.K., Japan) and recorded on a recorder (Type 3066, made by Yokogawa-Hokushin Denki, K.K. Japan). After the contraction curves reached a plateau, the test compounds were successively added in order to get cumulative concentration-relaxation curves. The concentration of 50% relaxation rate (IC50) was calculated from the regression line, which was obtained from the cumulative concentration-relaxation curves.

[3] = test system: platelet activating factor (PAF)-induced mortality; assay: Inhibition effect on platelet activating factor (PAF)-induced mortality; type: in vivo, male dd mice; details: Mus musculus, po, PAF 40 μg/kg i.v., 3 h, read-out: Survival rate of test compound-administered group; for responders at 100 mg/kg: n = 10, control group survival 0-20%
Experimental: e) Inhibition effect on platelet activating factor (PAF)-induced mortality
The experiment was carried out by a minor modification of a known method [Br. J. Pharmacol., 79, 595 (1983)]. Groups each consisting of 10 male dd mice (weighing 28 to 32 g) were used, and 50 or 100 mg/kg of the test compound or a saline (control) was orally administered. One hour after the administration of test compound, 40 μg/kg of PAF (manufactured by Avanti Polar Lipids Co., Ltd.) was intravenously administered. Three hours after PAF injection, the mortality of the animals was observed.

[4] = test system: zymosan-induced paw edema; assay: Effect on zymosan-induced paw edema; type: in vivo, male Wistar rats; details: Rattus norvegicus, po; 25 mg/kg P.O.; read-out: Suppression rate for paw swelling, zymosan-induced edema
Experimental: as §1, §2, §3
b) Effect on zymosan-induced paw edema
The experiment was carried out in the same manner as in the carrageenin-induced paw edema test except that 1% zymosan (Zymosan A®; Sigma Chemical Co.) was used in place of 1% carrageenin and the right hind paw volume was measured […] the injection of the edema-inducing substance instead of 3 hours. The swelling rate and the suppression rate were calculated by equation 1 and equation 2, respectively.

Row | Compound | MLD (Minimum Lethal Dose) i.p. (ddY strain male mice) | MLD (Minimum Lethal Dose) p.o. (ddY strain male mice) | inhibition in vivo at 100 mg/kg [1] | IC50 [2] | responders at 100 mg/kg [3] | inhibition in vivo at 50 mg/kg ([1]; po, 50 mg/kg P.O.) | inhibition in vivo at 25 mg/kg [4] | responders at 50 mg/kg ([3]; 50 mg/kg p.o., n = 10, control group survival 0%)
1 | CC(c1ccccc1)n1cnc2c3cccnc3n(-c3ccccc3)c(=O)c21 (stereo not drawn) [Compound 16, 3-(α-Methyl)benzyl-5-phenyl-3H-imidazo[4,5-c][1,8]naphthyridin-4(5H)-one] | > 100 mg/kg | > 300 mg/kg | 3.5% | > 10 µM | 0% | – | – | –
2 | O=C(O)Cn1cnc2c3cccnc3n(-c3ccccc3)c(=O)c21 [Compound 17, 3-Carboxymethyl-5-phenyl-3H-imidazo[4,5-c][1,8]naphthyridin-4(5H)-one] | > 100 mg/kg | > 300 mg/kg | 10.8% | > 10 µM | 30% | – | – | –
3 | O=c1c2[nH]c(O)nc2c2cccnc2n1-c1ccccc1 [Compound 21, 2-Hydroxy-5-phenyl-3H-imidazo[4,5-c][1,8]naphthyridin-4(5H)-one] | > 100 mg/kg | > 300 mg/kg | 2.3% | 2 µM | 30% | – | – | –
4 | Cc1ccc(-n2c(=O)c3[nH]cnc3c3cccnc32)cc1 [Compound 24, 5-(4-Methyl)phenyl-3H-imidazo[4,5-c][1,8]naphthyridin-4(5H)-one] | – | – | – | > 10 µM | 40% | 0.3% | – | –
5 | Cc1cccc(-n2c(=O)c3[nH]cnc3c3cccnc32)c1 [Compound 25, 5-(3-Methyl)phenyl-3H-imidazo[4,5-c][1,8]naphthyridin-4(5H)-one] | – | – | 13.8% | > 10 µM | 60% | – | – | –
6 | O=c1c2[nH]cnc2c2cccnc2n1-c1cccc(Cl)c1 [Compound 26, 5-(3-Chloro)phenyl-3H-imidazo[4,5-c][1,8]naphthyridin-4(5H)-one] | – | – | 15.2% | > 10 µM | 90% | – | – | –
7 | CCCCn1c(=O)c2[nH]cnc2c2cccnc21 [Compound 27, 5-n-Butyl-3H-imidazo[4,5-c][1,8]naphthyridin-4(5H)-one] | – | – | 8.6% | > 10 µM | 60% | – | – | –
8 | CCCCCCn1cnc2c3cccnc3n(-c3ccccc3)c(=O)c21 [Compound 30, 3-Hexyl-5-phenyl-3H-imidazo[4,5-c][1,8]naphthyridin-4(5H)-one] | > 100 mg/kg | > 300 mg/kg | 48.5% | – | 90% | – | 33.5% | –
9 | O=c1c2c(ncn2Cc2ccc(Cl)cc2)c2cccnc2n1-c1ccccc1 [Compound 40, 3-(4-Chlorophenyl)methyl-5-phenyl-3H-imidazo[4,5-c][1,8]naphthyridin-4(5H)-one] | – | – | 21.3% | – | 40% | – | 42.8% | –
10 | O=c1c2c(ncn2Cc2ccc([N+](=O)[O-])cc2)c2cccnc2n1-c1ccccc1 [Compound 42, 3-(4-Nitrophenyl)methyl-5-phenyl-3H-imidazo[4,5-c][1,8]naphthyridin-4(5H)-one] | – | – | 35.9% | – | – | – | 45.6% | 100%
11 | COc1ccc(Cn2cnc3c4cccnc4n(-c4ccccc4)c(=O)c32)cc1 [Compound 45, 3-(4-Methoxyphenyl)methyl-5-phenyl-3H-imidazo[4,5-c][1,8]naphthyridin-4(5H)-one] | – | – | 37.8% | – | 40% | – | 66.9% | –
12 | COc1cccc(Cn2cnc3c4cccnc4n(-c4ccccc4)c(=O)c32)c1 [Compound 46, 3-(3-Methoxyphenyl)methyl-5-phenyl-3H-imidazo[4,5-c][1,8]naphthyridin-4(5H)-one] | – | – | – | – | 10% | – | 43.5% | –
